The values below come from patent publication US20180000085A1, “USE OF PICOLINAMIDE COMPOUNDS WITH FUNGICIDAL ACTIVITY” (DOW AGROSCIENCES LLC, priority 2014, published 2018).

The subject of one test is Zymoseptoria tritici. Kind of test: Leaf blotch of wheat (SEPTTR) disease control on wheat seedlings. The format is in vivo. The arrangement: key to SEPTTR 1DP, HV activity at 100 ppm (% control rating) / SEPTTR 3DC, HV activity at 100 ppm (% control rating) / SEPTTR disease control, 1DP / SEPTTR disease control, 3DC / SEPTTR 1DP disease control rating, HV activity / SEPTTR 3DC disease control rating, HV activity / SEPTTR 3DC, LV activity at 125.1 g/H (% Control rating) / SEPTTR 1DP, LV activity at 125.1 g/H (% Control rating) / SEPTTR 1DP disease control rating, LV activity at 125.1 g/H / SEPTTR 3DC disease control rating, LV activity at 125.1 g/H / SEPTTR 3DC disease control rating, HV activity at 100 ppm / SEPTTR 1DP disease control rating, HV activity at 100 ppm / HV activity at 100 ppm SEPTTR 3DC (disease control rating) / HV activity at 100 ppm SEPTTR 1DP (disease control rating) / LV activity at 125.1 g/H SEPTTR 1DP (disease control rating) / LV activity at 125.1 g/H SEPTTR 3DC (disease control rating): A: > 80; B: ≤ 80; C: Not Tested; D: No Activity Observed in the Reported Assay. The settings on record: for LV activity at 125.1 g/H SEPTTR 1DP (disease control rating) / SEPTTR 1DP, LV activity at 125.1 g/H (% Control rating): 1 Day Protectant; for LV activity at 125.1 g/H SEPTTR 1DP (disease control rating) / LV activity at 125.1 g/H SEPTTR 3DC (disease control rating): wheat leaf blotch; for LV activity at 125.1 g/H SEPTTR 3DC (disease control rating) / SEPTTR 3DC, LV activity at 125.1 g/H (% Control rating): 3 Day Curative.

The subject of the next test is Puccinia triticina. Kind of test: Wheat brown rust (PUCCRT) disease control on wheat seedlings. The test is classed as in vivo. As to conditions: for LV activity at 125.1 g/H PUCCRT 1DP (disease control rating) / PUCCRT 1DP, LV activity at 125.1 g/H (% Control rating): 1 Day Protectant; for LV activity at 125.1 g/H PUCCRT 1DP (disease control rating) / LV activity at 125.1 g/H PUCCRT 3DC (disease control rating): wheat brown rust; for LV activity at 125.1 g/H PUCCRT 3DC (disease control rating) / PUCCRT 3DC, LV activity at 125.1 g/H (% Control rating): 3 Day Curative. More on the design: key to PUCCRT 3DC, HV activity at 100 ppm (% control rating) / PUCCRT disease control, 3DC / PUCCRT 1DP disease control rating, HV activity / PUCCRT 3DC disease control rating, HV activity / PUCCRT 3DC, LV activity at 125.1 g/H (% Control rating) / PUCCRT 1DP, LV activity at 125.1 g/H (% Control rating) / PUCCRT 3DC disease control rating, LV activity at 125.1 g/H / PUCCRT 1DP disease control rating, LV activity at 125.1 g/H / PUCCRT 3DC disease control rating, HV activity at 100 ppm / PUCCRT 1DP disease control rating, HV activity at 100 ppm / HV activity at 100 ppm PUCCRT 3DC (disease control rating) / LV activity at 125.1 g/H PUCCRT 1DP (disease control rating) / LV activity at 125.1 g/H PUCCRT 3DC (disease control rating): A: > 80; B: ≤ 80; C: Not Tested; D: No Activity Observed in the Reported Assay.

[1] abbreviates: low volume application, 125.1 g/H, 1 day protectant.
Where [2] appears, read: low volume application, 125.1 g/H, 3 day curative.
Setting [3] is: low volume application, 125.1 g/H.
The mark [4] stands for this setting: high volume application, 100 ppm, 1 day protectant.
The mark [5] stands for this setting: high volume application, 100 ppm, 3 day curative.

With `CCC(CC)C(Oc1cc(F)cc(Cl)c1)C(C)OC(=O)C(CC(C)C)NC(=O)c1nccc(OC)c1OC(C)=O` (stereo not shown) [Cmpd 688], the “SEPTTR 1DP disease control rating, LV activity at 125.1 g/H” value in the test with Zymoseptoria tritici (setting [1]) is “D”. In addition, the “SEPTTR 3DC disease control rating, LV activity at 125.1 g/H” value in the test with Zymoseptoria tritici (setting [2]) was “B (≤ 80)”. For the same molecule, in the test with Puccinia triticina (setting [1]), the “PUCCRT 1DP disease control rating, LV activity at 125.1 g/H” value is “D”. The “PUCCRT 3DC disease control rating, LV activity at 125.1 g/H” value in the test on Puccinia triticina (setting [2]) is reported as “D”.

For `COc1ccnc(C(=O)N[C@@H](C)C(=O)O[C@@H](C)[C@H](OCC2CC2)C2CC2)c1OC(C)=O` [Cmpd 1066], in the test on Zymoseptoria tritici (setting [3]), the “LV activity at 125.1 g/H SEPTTR 1DP (disease control rating)” value is “B (≤ 80)” and the “LV activity at 125.1 g/H SEPTTR 3DC (disease control rating)” value is reported as “B (≤ 80)”. Further, in the test with Puccinia triticina (setting [3]), the “LV activity at 125.1 g/H PUCCRT 1DP (disease control rating)” value is on record as “B (≤ 80)” and the “LV activity at 125.1 g/H PUCCRT 3DC (disease control rating)” value is reported as “A (> 80)”.

On to `COc1ccnc(C(=O)NC(C)C(=O)OC(C)COCC2CC2)c1OCOC(=O)C(C)C` (stereo not shown) [Cmpd 528], for which, in the test on Zymoseptoria tritici (setting [3]), the “SEPTTR 1DP, LV activity at 125.1 g/H (% Control rating)” value (from here on “SEPTTR 1DP … (% Control rating)”) is “D” and the “SEPTTR 3DC, LV activity at 125.1 g/H (% Control rating)” value (“SEPTTR 3DC … (% Control rating)” for short) was “B (≤ 80)”. For the same molecule, in the test with Puccinia triticina (setting [3]), the “PUCCRT 1DP, LV activity at 125.1 g/H (% Control rating)” value (“PUCCRT 1DP … (% Control rating)” for short) is recorded as “D” and the “PUCCRT 3DC, LV activity at 125.1 g/H (% Control rating)” value (“PUCCRT 3DC … (% Control rating)” for short) is “D”.

`CCOc1ccnc(C(=O)NC(C)C(=O)OC(C)C(CC(C)C)Oc2ccc(C)cc2Cl)c1OC(C)=O` (stereo not shown) [Cmpd 1098]: in the test on Zymoseptoria tritici (setting [3]), the “LV activity at 125.1 g/H SEPTTR 1DP (disease control rating)” value is on record as “D” and the “LV activity at 125.1 g/H SEPTTR 3DC (disease control rating)” value was “D”. In addition, in the test with Puccinia triticina (setting [3]), the “LV activity at 125.1 g/H PUCCRT 1DP (disease control rating)” value is given as “D” and the “LV activity at 125.1 g/H PUCCRT 3DC (disease control rating)” value was “B (≤ 80)”.

As for `COc1ccnc(C(=O)N[C@@H](C)C(=O)O[C@@H](C)[C@H](Oc2cccc(Cl)c2)C(C)C)c1OCOC(=O)C(C)C` [Cmpd 571], in the test with Zymoseptoria tritici (setting [3]), the “SEPTTR 1DP … (% Control rating)” value is “B (≤ 80)” and the “SEPTTR 3DC … (% Control rating)” value was “A (> 80)”. In the test on Puccinia triticina (setting [3]), the “PUCCRT 1DP … (% Control rating)” value is listed as “A (> 80)” and the “PUCCRT 3DC … (% Control rating)” value was “A (> 80)”.

Take `CC[C@H](NC(=O)c1nccc(OC)c1OC(C)=O)C(=O)O[C@@H](C)[C@H](Oc1cc(F)cc(Cl)c1)c1ccccc1` [Cmpd 644]: in the test with Zymoseptoria tritici (setting [3]), the “SEPTTR 1DP … (% Control rating)” value is given as “A (> 80)” and the “SEPTTR 3DC … (% Control rating)” value was “A (> 80)”. For the same molecule, in the test on Puccinia triticina (setting [3]), the “PUCCRT 1DP … (% Control rating)” value is recorded as “A (> 80)” and the “PUCCRT 3DC … (% Control rating)” value is “B (≤ 80)”.

`COc1ccnc(C(=O)N[C@@H](C)C(=O)O[C@@H](C)[C@H](Oc2ccc(C)cc2Cl)C2CC2)c1O` [Cmpd 1005]: the “SEPTTR 1DP disease control rating, HV activity at 100 ppm” value with Zymoseptoria tritici (setting [4]) was “B (≤ 80)”. Further, the “SEPTTR 3DC disease control rating, HV activity at 100 ppm” value in the test with Zymoseptoria tritici (setting [5]) is “B (≤ 80)”. Moreover, the “PUCCRT 1DP disease control rating, HV activity at 100 ppm” value with Puccinia triticina (setting [4]) is reported as “A (> 80)”. Besides, the “PUCCRT 3DC disease control rating, HV activity at 100 ppm” value in the test with Puccinia triticina (setting [5]) is recorded as “A (> 80)”.

For the molecule `CCC(CC)[C@@H](Oc1cc(F)cc(Cl)c1)[C@H](C)OC(=O)[C@@H](NC(=O)c1nccc(OC)c1OCOC(C)=O)C(C)C` [Cmpd 651], in the test on Zymoseptoria tritici (setting [3]), the “SEPTTR 1DP … (% Control rating)” value is reported as “A (> 80)” and the “SEPTTR 3DC … (% Control rating)” value was “A (> 80)”. Moreover, in the test on Puccinia triticina (setting [3]), the “PUCCRT 1DP … (% Control rating)” value is listed as “A (> 80)” and the “PUCCRT 3DC … (% Control rating)” value was “B (≤ 80)”.

For the molecule `CC[C@H](NC(=O)c1nccc(OC)c1OCOC(C)=O)C(=O)O[C@@H](C)[C@H](Oc1cc(F)cc(Cl)c1)c1ccccc1` [Cmpd 643], in the test with Zymoseptoria tritici (setting [3]), the “SEPTTR 1DP … (% Control rating)” value is given as “A (> 80)” and the “SEPTTR 3DC … (% Control rating)” value is on record as “A (> 80)”. Moreover, in the test with Puccinia triticina (setting [3]), the “PUCCRT 1DP … (% Control rating)” value is listed as “A (> 80)” and the “PUCCRT 3DC … (% Control rating)” value is reported as “B (≤ 80)”.

For the molecule `COc1ccnc(C(=O)N[C@@H](C)C(=O)O[C@@H](C)[C@H](Oc2cccc3ccccc23)C(C)C)c1OC(C)=O` [Cmpd 631], in the test on Zymoseptoria tritici (setting [3]), the “SEPTTR 1DP … (% Control rating)” value is recorded as “B (≤ 80)” and the “SEPTTR 3DC … (% Control rating)” value is “D”. Further, in the test on Puccinia triticina (setting [3]), the “PUCCRT 1DP … (% Control rating)” value was “A (> 80)” and the “PUCCRT 3DC … (% Control rating)” value is recorded as “A (> 80)”.
